The experiment concerns E. coli. The experiment in a line: Bacterial susceptibility testing, MIC by broth microdilution (CLSI). The following applies: for MIC: Escherichia coli, read-out: E. coli MIC, broth microdilution, 35° C., 18-24 h; for E. coli MIC: broth microdilution, 35° C., 18-24 h.

≈ marks a conversion by molar mass, not a printed value.

The MIC is the lowest concentration found to suppress growth.

Consider `CN1CCN(C(=O)c2ccc(C#Cc3ccc(C(CO)Cc4nc[nH]c(=O)c4O)cc3)cc2)CC1` (stereo not shown) [Compound 59], for which the minimal inhibitory concentration (MIC) is 1 to 8 µg/mL (≈ 2.12 to 16.9 µM).
As to `CC(=O)N1CC[C@@H](NCc2ccc(C#Cc3ccc(C(CO)Cc4nc[nH]c(=O)c4O)cc3)cc2)C1` (single isomer, unassigned) [Compound 234], the “E. coli MIC” value is reported as “A (A: ≤1 μg/mL)”.
For the compound `C[C@@H](CF)NCC(Cc1nc[nH]c(=O)c1O)c1ccc(C#Cc2ccc(CN3CC4COCC4C3)cc2)cc1` (mixture of isomers) [Compound 84], the MIC was under 1 µg/mL.
In the case of `C[C@@H](CF)NCC(Cc1nc[nH]c(=O)c1O)c1ccc(C#Cc2ccc(CN3CC[C@H](C#N)C3)cc2)cc1` (mixture of isomers) [Compound 92], the MIC is under 1 µg/mL.
Turning to `CC(=O)N1CC[C@@H](NCc2ccc(C#Cc3ccc(C(CO)Cc4nc[nH]c(=O)c4O)cc3)cc2)C1` (single isomer, unassigned) [Compound 233], the “E. coli MIC” value is “B (B: >1 μg/mL to ≤8.0 μg/mL)”.
Same read-out and setting: with `O=C(CO)NC1CCN(Cc2ccc(C#Cc3ccc(C(CO)Cc4nc[nH]c(=O)c4O)cc3)cc2)CC1` (stereo not shown) [Compound 241] the entry was “B (B: >1 μg/mL to ≤8.0 μg/mL)”; with `O=C(CO)N1CC[C@@H](NCc2ccc(C#Cc3ccc(C(CO)Cc4nc[nH]c(=O)c4O)cc3)cc2)C1` (single isomer, unassigned) [Compound 45], “B (B: >1 μg/mL to ≤8.0 μg/mL)”.
Same read-out and setting: the result for `O=c1[nH]cnc(CC(CNC2CC2)c2ccc(C#Cc3ccc(CN4CCOCC4)cc3)cc2)c1O` (stereo not shown) [Compound 119] reads “A (A: ≤1 μg/mL)”.
For `Cc1nccn1CC(Cc1nc[nH]c(=O)c1O)c1ccc(C#Cc2ccc(CN3CCOCC3)cc2)cc1` (stereo not shown) [Compound 305], the MIC was under 1 µg/mL.
The same measure, in the same setting: with `O=C(NCCF)C(Cc1nc[nH]c(=O)c1O)c1ccc(C#Cc2ccc(CN3CCOCC3)cc2)cc1` (stereo not shown) [Compound 19] the figure was under 1 µg/mL.
Same read-out and setting: with `O=c1[nH]cnc(CC(CO)c2ccc(C#Cc3ccc(CNC4COC4)cc3)cc2)c1O` (stereo not shown) [Compound 49] the figure was under 1 µg/mL.
On to `C[C@@H](CC#N)NCC(Cc1ncnc(O)c1O)c1ccc(C#Cc2ccc(CN3CCOCC3)cc2)cc1` (single isomer, unassigned) [Compound 99], for which the minimal inhibitory concentration (MIC) was under 1 µg/mL.
Still for that read-out and setting: with `O=c1[nH]cnc(C[C@@H](CN2CC(O)C2)c2ccc(C#Cc3ccc(CN4CCOCC4)cc3)cc2)c1O` (single isomer, unassigned) [Compound 229] the figure was 1 to 8 µg/mL (≈ 2 to 16 µM).
`C[C@@H](CF)NCC(Cc1nc[nH]c(=O)c1O)c1ccc(C#Cc2ccc(CN3CC4(CCOC4)C3)cc2)cc1` (mixture of isomers) [Compound 127]: the minimal inhibitory concentration (MIC) lay in the range of 1 to 8 µg/mL.
Take `O=c1[nH]cnc(CC(CO)c2ccc(C#Cc3ccc(CN[C@H]4CCOC4)cc3)cc2)c1O` (single isomer, unassigned) [Compound 10]: the “E. coli MIC” value was “A (A: ≤1 μg/mL)”.
Consider `O=c1[nH]cnc(CC(CO)c2ccc(C#Cc3ccc(CNC4CC[S+]([O-])C4)cc3)cc2)c1O` (stereo not shown) [Compound 60], for which the MIC was 1 to 8 µg/mL (≈ 2.09 to 16.8 µM).
The same measure, in the same setting: with `O=c1[nH]cnc(CC(CNCCF)c2ccc(C#Cc3cnn(C4CCOCC4)c3)cc2)c1O` (stereo not shown) [Compound 205] the figure was 1 to 8 µg/mL (≈ 2.15 to 17.2 µM); with `O=c1[nH]cnc(CC(CNCCF)c2ccc(C#Cc3cnn(C4COC4)c3)cc2)c1O` (stereo not shown) [Compound 208], 1 to 8 µg/mL (≈ 2.29 to 18.3 µM).
For `C[C@H](CO)NCC(Cc1nc[nH]c(=O)c1O)c1ccc(C#Cc2ccc(CN3CCOCC3)cc2)cc1` (single isomer, unassigned) [Compound 171], the “E. coli MIC” value is reported as “A (A: ≤1 μg/mL)”.
For `C[C@@H](CF)NCC(Cc1nc[nH]c(=O)c1O)c1ccc(C#Cc2ccc(CN3CC[C@@H](C#N)C3)cc2)cc1` (mixture of isomers) [Compound 91], the minimal inhibitory concentration (MIC) was under 1 µg/mL.
For the compound `C[C@@H](O)CNC[C@H](Cc1nc[nH]c(=O)c1O)c1ccc(C#Cc2ccc(CN3CCOCC3)cc2)cc1` (single isomer, unassigned) [Compound 247], the minimum inhibitory concentration (MIC) lay in the range of 1 to 8 µg/mL (≈ 1.99 to 15.9 µM).
On the same count and under the same terms, the result for `O=c1[nH]cnc(CC(CO)c2ccc(C#Cc3ccc(CN[C@@H]4CCS(=O)(=O)C4)cc3)cc2)c1O` (single isomer, unassigned) [Compound 40] reads 1 to 8 µg/mL (≈ 2.03 to 16.2 µM); that for `N=S1(=O)CCC(NCc2ccc(C#Cc3ccc(C(CO)Cc4nc[nH]c(=O)c4O)cc3)cc2)CC1` (stereo not shown) [Compound 149], 1 to 8 µg/mL (≈ 1.97 to 15.8 µM).
With `O=c1[nH]cnc(CC(CO)c2ccc(C#Cc3ccc(CN[C@H]4CCS(=O)(=O)C4)cc3)cc2)c1O` (single isomer, unassigned) [Compound 39], the MIC is under 1 µg/mL.
Consider `CS(=O)(=O)N[C@H](Cc1nc[nH]c(=O)c1O)c1ccc(C#Cc2ccc(CN3CCNC[C@H]3CO)cc2)cc1` [Compound 291], for which the minimum inhibitory concentration (MIC) is under 1 µg/mL.
On the same count and under the same terms, with `COC1CN(Cc2ccc(C#Cc3ccc([C@H](Cc4nc[nH]c(=O)c4O)CN(C)C4CC4)cc3)cc2)C1` (single isomer, unassigned) [Compound 220] the figure was under 1 µg/mL; with `N=[S@]1(=O)CC[C@@H](NCc2ccc(C#Cc3ccc(C(CO)Cc4nc[nH]c(=O)c4O)cc3)cc2)C1` (mixture of isomers) [Compound 150], 1 to 8 µg/mL.
The same measure, in the same setting: with `O=C(CO)N1CCC(C#Cc2ccc(C(CO)Cc3nc[nH]c(=O)c3O)cc2)CC1` (stereo not shown) [Compound 264] the figure was over 32 µg/mL.
Regarding `O=c1[nH]cnc(CC(CO)c2ccc(C#Cc3ccc(CN[C@H]4CCOC4)cc3)cc2)c1O` (mixture of isomers) [Compound 8], the minimum inhibitory concentration (MIC) is under 1 µg/mL.
Still for that read-out and setting: the result for `COC1CN(Cc2ccc(C#Cc3ccc(C(CN[C@@H](C)CF)Cc4nc[nH]c(=O)c4O)cc3)cc2)C1` (mixture of isomers) [Compound 66] reads under 1 µg/mL.
On the same count and under the same terms, with `O=C(NC1CC(F)(F)C1)C(Cc1nc[nH]c(=O)c1O)c1ccc(C#Cc2ccc(CN3CCOCC3)cc2)cc1` (stereo not shown) [Compound 25] the figure was 1 to 8 µg/mL (≈ 1.82 to 14.6 µM).
On the same count and under the same terms, with `O=c1[nH]cnc(C[C@H](CO)c2ccc(C#Cc3ccc(C4(O)CCNCC4)cc3)cc2)c1O` (single isomer, unassigned) [Compound 266] the figure was 1 to 8 µg/mL (≈ 2.24 to 18 µM).
Take `COC1CN(Cc2ccc(C#Cc3ccc([C@@](C)(CNC4CC4)Cc4nc[nH]c(=O)c4O)cc3)cc2)C1` (single isomer, unassigned) [Compound 228]: the MIC is under 1 µg/mL.
`C[C@@H](CF)NCC(Cc1nc[nH]c(=O)c1O)c1ccc(C#Cc2ccc(CCN3CCOCC3)cc2)cc1` (mixture of isomers) [Compound 294]: the MIC was under 1 µg/mL.
Turning to `CO[C@@H]1CCN(Cc2ccc(C#Cc3ccc(C(CNCC(C)F)Cc4nc[nH]c(=O)c4O)cc3)cc2)C1` (mixture of isomers) [Compound 135], the “E. coli MIC” value was “B (B: >1 μg/mL to ≤8.0 μg/mL)”.
On the same count and under the same terms, the result for `O=c1[nH]cnc(CC(CN[C@H]2C[C@@H](F)C2)c2ccc(C#Cc3ccc(CN4CCOCC4)cc3)cc2)c1O` (stereo partly shown) [Compound 77] reads “B (B: >1 μg/mL to ≤8.0 μg/mL)”.
For the compound `COC1CN(CC(Cc2nc[nH]c(=O)c2O)c2ccc(C#Cc3ccc(CN4CCOCC4)cc3)cc2)C1` (stereo not shown) [Compound 71], the minimum inhibitory concentration (MIC) was under 1 µg/mL.
`CS(=O)(=O)N[C@@H](Cc1nc[nH]c(=O)c1O)c1ccc(C#Cc2ccc(C3(O)CCNCC3)cc2)cc1` (single isomer, unassigned) [Compound 296]: the MIC is 8 to 32 µg/mL (≈ 15.7 to 62.9 µM).
Take `O=c1[nH]cnc(CC(CNC2CC(F)(F)C2)c2ccc(C#Cc3ccc(CN4CCOCC4)cc3)cc2)c1O` (stereo not shown) [Compound 114]: the “E. coli MIC” value is given as “B (B: >1 μg/mL to ≤8.0 μg/mL)”.
With `C[C@H](O)CNC[C@H](Cc1nc[nH]c(=O)c1O)c1ccc(C#Cc2ccc(CN3CCOCC3)cc2)cc1` (single isomer, unassigned) [Compound 246], the MIC was 1 to 8 µg/mL (≈ 1.99 to 15.9 µM).

(Values after patent US11407740B2 (priority 2018, dated 2022).)
